Legend:
[1] = test system: colon cells HT29; assay: Trypan blue cell viability, HT29; assay type: cell-based; details: 10 μM, HT29, trypan blue exclusion, FIG. 1
Procedure: (§1) Cell viability was assessed by measuring the number of cells alive in samples of two different kind of prostate cells, respectively noted LNCAP and PC3, of breast cells noted MCF7, of colon cells noted HT29, of metastatic melanoma cell lines A375 and of melanoma cells from patients noted GIC. The measure of cell viability as performed by cell counting using the trypan blue exclusion method. Results were expressed as the percentage of cells alive relatively to the number of living cells in the presence of DMSO, which corresponds to the negative control associated to the 100% value. Cells were seeded in 6-well plates (60000 cells/well), depleted and incubated with compounds for the times indicated. Then cells were detached in the presence of 2000 of […] (Thermo) and 2 ml of RPMI 1640 Glutamax (Gibco) was added to the cell solution. 100 of this solution was stained for 1 minute with 100 of 0.4% trypan blue before counting with a Malassez chamber. The effect of compound on cell viability was studied on different types of cells. […] Cancer cells from prostate, breast, colon and melanoma A375 came from cell lines cultures. […] Results are expressed as percentage of cells alive relatively to the number of living cells in the presence of DMSO, which corresponds to the negative control associated to the 100% value. […]

[2] = test system: normal human melanocytes; assay: Trypan blue cell viability, normal melanocytes; assay type: cell-based; details: 10 μM, FIG. 2
Procedure: Primary cell cultures of human normal melanocytes were prepared from human foreskin. In order to determine the effect of compound HA15 on cell viability of melanocytes and fibroblasts, 10 μM of ciglitazone or 10 μM of HA15 were added to the cell samples. The measure of cell viability was performed in the same way as for FIG. 1. Results are expressed as the percentage of living cells relatively to the number of living cells in the presence of DMSO, as for FIG. 1. Normal human melanocytes (NHM) prepared from foreskins of newborns were grown under 5% CO2 at 37° C. in MCDB 153 (Sigma) supplemented with 2% FCS, bovine pituitary extract (10 μg/ml), PMA (8 nM), bFGF (ing/nil), insulin (5 μg/ml), hydrocortisone (0.5 μg/ml), forskolin (10 μM), gentamicin (20 μg/ml), penicillin/streptomycin/amphotericin B (100 U/ml) (Invitrogen). Cells were seeded in 6-well plates (60000 cells/well), depleted and incubated with compounds for the times indicated. Then cells were detached in the presence of 2000 of […] (Thermo) and 2 ml of RPMI 1640 Glutamax (Gibco) was added to the cell solution. 100 of this solution was stained for 1 minute with 100 of 0.4% trypan blue before counting with a Malassez chamber. The effect of compound HA15 on cell viability of melanocytes and fibroblasts was studied, as illustrated by FIG. 2. Primary cell cultures of human normal melanocytes were prepared from human foreskin. […]

[3] = test system: prostate cells LNCAP; assay: Trypan blue cell viability, LNCAP; assay type: cell-based; details: 10 μM, trypan blue exclusion, FIG. 1
Procedure: as §1

[4] = test system: melanoma cells from patients GIC; assay: Trypan blue cell viability, patient melanoma cells GIC; assay type: cell-based, human; details: 10 μM, trypan blue exclusion, FIG. 1
Procedure: Cell viability was assessed by measuring the number of cells alive in samples of two different kind of prostate cells, respectively noted LNCAP and PC3, of breast cells noted MCF7, of colon cells noted HT29, of metastatic melanoma cell lines A375 and of melanoma cells from patients noted GIC. The measure of cell viability as performed by cell counting using the trypan blue exclusion method. Results were expressed as the percentage of cells alive relatively to the number of living cells in the presence of DMSO, which corresponds to the negative control associated to the 100% value. Patient melanoma cells were prepared from biopsy after digestion for 1-2 h with collagenase A (0.33 U/ml), dispase (0.85 U/ml) and Dnase I (144 U/ml) at 37° C. Large debris were removed by filtration through a […] cell strainer. Cells were seeded in 6-well plates (60000 cells/well), depleted and incubated with compounds for the times indicated. Then cells were detached in the presence of 2000 of […] (Thermo) and 2 ml of RPMI 1640 Glutamax (Gibco) was added to the cell solution. 100 of this solution was stained for 1 minute with 100 of 0.4% trypan blue before counting with a Malassez chamber. […] Results are expressed as percentage of cells alive relatively to the number of living cells in the presence of DMSO, which corresponds to the negative control associated to the 100% value. […]

[5] = test system: prostate cells PC3; assay: Trypan blue cell viability, PC3; assay type: cell-based; details: 10 μM, PC3, trypan blue exclusion, FIG. 1
Procedure: as §1

**Q.** How did the “cell viability (cells alive relative to DMSO)” value [1] turn out when `CC(=O)Nc1nc(-c2cccc(NS(=O)(=O)c3cccc4c(N(C)C)cccc34)c2)cs1` [HA15, N-(4-(3-(5-(dimethylamino)naphthalene-1-sulfonamido)phenyl)thiazol-2-yl)acetamide] was run?
**A.** viability greatly reduced

**Q.** And the “cell viability of normal melanocytes” value [2]?
**A.** not affected

**Q.** What about the “cell viability (cells alive relative to DMSO)” value [3] of the same compound?
**A.** viability greatly reduced

**Q.** And the “cell viability (cells alive relative to DMSO)” value [4]?
**A.** viability greatly reduced

**Q.** What about the “cell viability (cells alive relative to DMSO)” value [5] of the same compound?
**A.** viability greatly reduced

Reference: US20150284347A1, “NEW BENZENE SULFONAMIDE THIAZOLE COMPOUNDS” (INSERM (INSTITUT NATIONAL DE LA SANTÉ ET DE LA RECHERCHE …, priority 2012, published 2015)
